According to US9487762B1, “Method and system for producing triterpenes” (University of Kentucky Research Foundation, priority 2012, dated 2016):

Tests used:
TMT-2 [1] = molecular target: T1, TMT-2 (Botryococcus braunii, UniProt H2E7T6); experiment: In vitro methyltransferase assay, yeast microsomes, 3H-SAM; assay type: biochemical, Botryococcus braunii race B; design: led to the identification of six full-length ORFs; made in house; host or cells: Saccharomyces cerevisiae TN7 (TN-7), microsomal preparation; conditions: TMT-2 microsomes; 2 mM acceptor substrate, 50 μM 3H-SAM, 0.1% DHPC, 37° C., 5 min; mean ± S.E.M., n = 3
T1 sequence (H2E7T6 1-378): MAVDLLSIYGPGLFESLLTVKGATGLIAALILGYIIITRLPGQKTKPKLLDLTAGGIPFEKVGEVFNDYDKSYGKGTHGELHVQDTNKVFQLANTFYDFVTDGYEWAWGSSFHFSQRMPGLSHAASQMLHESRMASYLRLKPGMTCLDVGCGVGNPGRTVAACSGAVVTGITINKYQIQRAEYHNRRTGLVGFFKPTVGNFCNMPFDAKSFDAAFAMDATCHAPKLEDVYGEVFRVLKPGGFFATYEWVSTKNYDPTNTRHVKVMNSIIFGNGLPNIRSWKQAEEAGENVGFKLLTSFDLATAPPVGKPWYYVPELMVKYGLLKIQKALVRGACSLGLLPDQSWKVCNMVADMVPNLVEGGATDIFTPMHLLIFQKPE
Experimental: (§1) The various B. braunii SMT-like genes or empty vector control were expressed in TN-7 yeast and grown in 100 ml selection media for 3 days, after which microsomes were prepared according to the methods of Pompon et al. (27). Enzyme assays contained 50 mM HEPES, pH 7.5, either 0.01% (TMT-3) or 0.1% (all other samples) DHPC, 2 mM acceptor substrate (botryococcene, squalene, C32-botryococcene, C32-squalene, cycloartenol, zymosterol, or lanosterol), 50 μM 3H-SAM (˜150 dpm/pmole), 2 μl microsomes, in 100 μl total volume. Assays were set up by first combining everything except 3H-SAM and microsomes and treating with a sonicating water bath (Branson 2510) for ˜1 min. until the solution became cloudy due to micelle formation, after which 3H-SAM and microsomes were added and the reaction incubated at 37° C. for 5 min. Reactions were stopped by adding an equal volume of 10% (w/v) KOH in methanol, followed by extraction of hydrocarbon products with 400 μl n-hexane. An aliquot of the organic phase was spotted on silica TLC plates and developed with n-hexane:MTBE (25:1). Triterpenes were visualized with iodine vapor and the corresponding zones were scraped and subject to scintillation analysis. […]

TMT-1 [2] = molecular target: T2, TMT-1 (Botryococcus braunii, UniProt H2E7T5); experiment: as above; assay type: biochemical, Botryococcus braunii race B; design: led to the identification of six full-length ORFs; made in house; host or cells: Saccharomyces cerevisiae TN7 (TN-7), microsomal preparation; conditions: TMT-1 microsomes; 2 mM acceptor substrate, 50 μM 3H-SAM, 0.1% DHPC, 37° C., 5 min; mean ± S.E.M., n = 3
T2 sequence (H2E7T5 1-378): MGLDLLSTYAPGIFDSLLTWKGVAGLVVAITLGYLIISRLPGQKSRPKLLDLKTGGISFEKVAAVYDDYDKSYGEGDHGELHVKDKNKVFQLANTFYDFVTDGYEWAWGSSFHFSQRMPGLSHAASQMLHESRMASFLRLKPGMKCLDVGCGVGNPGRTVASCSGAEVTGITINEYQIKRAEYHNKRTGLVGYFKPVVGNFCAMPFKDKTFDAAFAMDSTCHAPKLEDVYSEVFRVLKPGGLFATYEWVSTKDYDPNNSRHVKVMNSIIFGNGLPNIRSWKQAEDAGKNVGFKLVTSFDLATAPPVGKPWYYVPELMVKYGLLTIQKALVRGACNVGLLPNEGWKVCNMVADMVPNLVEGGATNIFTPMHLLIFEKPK
Experimental: as §1

TMT-3 [3] = molecular target: T3, TMT-3 (Botryococcus braunii, UniProt H2E7T7); experiment: as above; assay type: biochemical, Botryococcus braunii race B; conditions: TMT-3 microsomes; 2 mM acceptor substrate, 50 μM 3H-SAM, 0.01% DHPC, 37° C., 5 min; mean ± S.E.M., n = 3
T3 construct: led to the identification of six full-length ORFs; expressed in transfected cells; host or cells: Saccharomyces cerevisiae TN7 (erg9 insertional mutant) co-expressing B. braunii squalene synthase (BSS) or SSL-1-3m
T3 sequence (H2E7T7 1-379): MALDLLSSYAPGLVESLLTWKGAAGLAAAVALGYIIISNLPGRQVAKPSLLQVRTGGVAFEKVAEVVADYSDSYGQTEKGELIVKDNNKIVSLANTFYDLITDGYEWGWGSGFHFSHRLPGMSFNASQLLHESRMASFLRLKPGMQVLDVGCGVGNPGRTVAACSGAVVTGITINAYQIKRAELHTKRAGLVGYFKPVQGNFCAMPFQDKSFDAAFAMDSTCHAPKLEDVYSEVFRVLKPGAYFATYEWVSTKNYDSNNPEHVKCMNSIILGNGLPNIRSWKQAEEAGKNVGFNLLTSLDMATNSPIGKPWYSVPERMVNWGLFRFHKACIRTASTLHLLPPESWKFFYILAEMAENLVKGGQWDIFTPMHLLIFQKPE
Experimental: (§2) The various B. braunii SMT-like genes or empty vector control were expressed in TN-7 yeast and grown in 100 ml selection media for 3 days, after which microsomes were prepared according to the methods of Pompon et al. (27). Enzyme assays contained 50 mM HEPES, pH 7.5, either 0.01% (TMT-3) or 0.1% (all other samples) DHPC, 2 mM acceptor substrate (botryococcene, squalene, C32-botryococcene, C32-squalene, cycloartenol, zymosterol, or lanosterol), 50 μM 3H-SAM (˜150 dpm/pmole), 2 μl microsomes, in 100 μl total volume. Assays were set up by first combining everything except 3H-SAM and microsomes and treating with a sonicating water bath (Branson 2510) for ˜1 min. until the solution became cloudy due to micelle formation, after which 3H-SAM and microsomes were added and the reaction incubated at 37° C. for 5 min. Reactions were stopped by adding an equal volume of 10% (w/v) KOH in methanol, followed by extraction of hydrocarbon products with 400 μl n-hexane. An aliquot of the organic phase was spotted on silica TLC plates and developed with n-hexane:MTBE (25:1). Triterpenes were visualized with iodine vapor and the corresponding zones were scraped and subject to scintillation analysis.
(§3) To verify the in vivo results with in vitro determinations, the six SMT-like genes were expressed in yeast and microsomal preparations used as the source of the enzymes in assays containing 3H-SAM and either botryococcene or squalene as substrates.

SMT-1 = molecular target: T4, SMT-1 (Botryococcus braunii, UniProt H2E7T8); experiment: as above; assay type: biochemical, Botryococcus braunii race B; conditions: SMT-1 microsomes; 2 mM acceptor substrate, 50 μM 3H-SAM, 0.1% DHPC, 37° C., 5 min
T4 construct: led to the identification of six full-length ORFs; made in house; host or cells: Saccharomyces cerevisiae TN7 (TN-7), microsomal preparation
T4 sequence (H2E7T8 1-389): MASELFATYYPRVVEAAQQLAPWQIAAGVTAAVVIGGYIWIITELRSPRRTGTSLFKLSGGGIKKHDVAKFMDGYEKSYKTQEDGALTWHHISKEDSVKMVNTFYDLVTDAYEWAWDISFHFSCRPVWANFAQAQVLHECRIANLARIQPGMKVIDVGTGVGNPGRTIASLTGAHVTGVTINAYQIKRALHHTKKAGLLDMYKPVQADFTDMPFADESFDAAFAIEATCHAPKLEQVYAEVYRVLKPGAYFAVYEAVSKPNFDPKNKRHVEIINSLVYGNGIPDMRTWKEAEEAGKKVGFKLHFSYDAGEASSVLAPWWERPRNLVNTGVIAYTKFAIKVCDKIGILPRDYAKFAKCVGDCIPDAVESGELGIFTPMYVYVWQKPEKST
Experimental: as §2, §3

SMT-2 = molecular target: T5, SMT-2 (Botryococcus braunii, UniProt H2E7T9); experiment: as above; assay type: biochemical, Botryococcus braunii race B; conditions: SMT-2 microsomes; 2 mM acceptor substrate, 50 μM 3H-SAM, 0.1% DHPC, 37° C., 5 min
T5 construct: led to the identification of six full-length ORFs; made in house; host or cells: Saccharomyces cerevisiae TN7 (TN-7), microsomal preparation
T5 sequence (H2E7T9 1-389): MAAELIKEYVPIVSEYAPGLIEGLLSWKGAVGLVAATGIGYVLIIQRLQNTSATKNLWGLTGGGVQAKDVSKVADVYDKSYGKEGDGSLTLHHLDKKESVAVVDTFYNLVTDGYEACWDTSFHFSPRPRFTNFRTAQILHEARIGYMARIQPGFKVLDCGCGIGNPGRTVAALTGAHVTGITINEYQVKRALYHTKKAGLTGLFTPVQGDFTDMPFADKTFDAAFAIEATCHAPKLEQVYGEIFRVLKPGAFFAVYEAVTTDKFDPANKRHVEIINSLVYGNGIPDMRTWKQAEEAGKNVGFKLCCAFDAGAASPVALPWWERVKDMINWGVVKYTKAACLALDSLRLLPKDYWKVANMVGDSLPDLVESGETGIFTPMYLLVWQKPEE
Experimental: as §2, §3

SMT-3 = molecular target: T6, SMT-3 (Botryococcus braunii, UniProt H2E7U0); experiment: as above; assay type: biochemical, Botryococcus braunii race B; conditions: SMT-3 microsomes; 2 mM acceptor substrate, 50 μM 3H-SAM, 0.1% DHPC, 37° C., 5 min
T6 construct: led to the identification of six full-length ORFs; made in house; host or cells: Saccharomyces cerevisiae TN7 (TN-7), microsomal preparation
T6 sequence (H2E7U0 1-392): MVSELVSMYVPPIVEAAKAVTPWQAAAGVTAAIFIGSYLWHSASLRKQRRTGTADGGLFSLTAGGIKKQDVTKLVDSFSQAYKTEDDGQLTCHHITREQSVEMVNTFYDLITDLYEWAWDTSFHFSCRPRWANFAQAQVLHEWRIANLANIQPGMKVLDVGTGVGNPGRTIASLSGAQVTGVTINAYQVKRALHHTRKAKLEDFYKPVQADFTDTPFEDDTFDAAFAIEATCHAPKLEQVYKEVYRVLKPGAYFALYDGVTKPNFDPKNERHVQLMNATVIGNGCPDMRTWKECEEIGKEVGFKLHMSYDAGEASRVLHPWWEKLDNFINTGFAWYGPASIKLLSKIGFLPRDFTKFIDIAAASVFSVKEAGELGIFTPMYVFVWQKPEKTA
Experimental: as §2, §3

TMT-2 [4] = molecular target: T1, TMT-2; experiment: In vivo co-expression in TN7 yeast with triterpene synthase, GC-MS of organic extracts; assay type: cell-based, Botryococcus braunii race B; design: led to the identification of six full-length ORFs; made in house; host or cells: Saccharomyces cerevisiae TN7 (TN-7); conditions: TN7 yeast co-expressing TMT-2 and BSS
Description: (§4) Yeast lines previously developed for high level accumulation of squalene and botryococcene were used for evaluating the putative triterpene methyltransferase genes (17,23,24). These lines consist of the TN7 parental strain harboring an insertional mutation in the native yeast squalene synthase gene (ERG9) transformed with expression vectors containing either the full-length Botryococcus squalene synthase (BSS) gene (18) or a fusion of the Botryococcus SSL-1 and SSL-3 genes (functional equivalent of botryococcene synthase) including a sequence encoding for the carboxy-terminal membrane targeting domain of the Botryococcus squalene synthase protein (SSL-1-3m) (17). The various methyltransferase expression vectors were introduced into these two yeast lines using the lithium acetate transformation protocol, followed by selection for complementation of the uracil and leucine auxotrophic growth markers (24). […]
(§5) In brief, 1 ml aliquots of the culture were combined with 1 ml of acetone, mixed vigorously, and incubated at room temperature for 10 min. […] The mixture was then centrifuged briefly at 500 g to separate the phases, and an aliquot of the organic phase (1-3 μl) analyzed by GC-MS with a Varian CP-3800 GC coupled to a Varian Saturn 2200 MS/MS (Varian Medical Systems) using a Supelco SLB-5 ms fused silica capillary column (30 m×0.25 mm×0.25 μm film thickness, Supelco). […]

TMT-1 [5] = molecular target: T2, TMT-1; experiment: as above; assay type: cell-based, Botryococcus braunii race B; design: led to the identification of six full-length ORFs; made in house; host or cells: Saccharomyces cerevisiae TN7 (TN-7); conditions: TN7 yeast co-expressing TMT-1 and BSS
Description: as §4, §5

TMT-3 [6] = molecular target: T3, TMT-3; experiment: as above; assay type: cell-based, Botryococcus braunii race B; conditions: TN7 yeast co-expressing TMT-3 and BSS
Description: as §4, §5

[7] = tested on: six B. braunii SMT-like genes (TMT-1, -2, -3, SMT-1, -2, -3); experiment: In vitro methyltransferase assay with sterol acceptor substrates; assay type: biochemical, Botryococcus braunii race B; conditions: 2 mM acceptor substrate, yeast microsomes, data not shown
Experimental: as §2
None of the six enzymes was able to methylate C32 botryococcene or C32 squalene, possible intermediates to the tetramethylated forms (see below).

Compound: CC(C)=CCC/C(C)=C/CC/C(C)=C/CC/C=C(\C)CC/C=C(\C)CCC=C(C)C [squalene]
- Enzyme activity (methyl groups transferred to acceptor substrate) (TMT-2 [1]): 862.2 ± 59.9 pmol/h/µg
- Enzyme activity (methyl groups transferred to acceptor substrate) (TMT-1 [2]): 513.7 ± 8.6 pmol/h/µg
- Enzyme activity (methyl groups transferred to acceptor substrate) (TMT-3 [3]): 35.4 ± 3.0 pmol/h/µg
- Enzyme activity (methyl groups transferred to acceptor substrate) (SMT-1): 0 pmol/h/µg
- Enzyme activity (methyl groups transferred to acceptor substrate) (SMT-2): 0 pmol/h/µg
- Enzyme activity (methyl groups transferred to acceptor substrate) (SMT-3): 0 pmol/h/µg
- Share of squalenes accumulated as methyl-derivatives (TMT-2 [4]): 40%
- Share of total squalenes accumulated as methyl-derivatives (TMT-1 [5]): 63%
- Share of total accumulating squalene converted to its methyl-derivatives (TMT-3 [6]): approximately 18%

Compound: CC(C)=CCC[C@@H](C)[C@H]1CC[C@@]2(C)C3=C(CC[C@]12C)[C@@]1(C)CC[C@H](O)C(C)(C)[C@@H]1CC3 [lanosterol]
- Methylation of the sterol acceptor substrate [7]: none of the six B. braunii SMT-like genes methylated

Compound: CC(C)=CCC[C@@H](C)[C@H]1CC[C@@]2(C)[C@@H]3CC[C@H]4C(C)(C)[C@@H](O)CC[C@@]45C[C@@]35CC[C@]12C [cycloartenol]
- Methylation of the sterol acceptor substrate [7]: none of the six B. braunii SMT-like genes methylated

Compound: CC(C)=CCC[C@@H](C)[C@H]1CC[C@H]2C3=C(CC[C@]12C)[C@@]1(C)CC[C@H](O)C[C@@H]1CC3 [zymosterol]
- Methylation of the sterol acceptor substrate [7]: none of the six B. braunii SMT-like genes methylated
